According to patent publication US20250276033A1, “COMPOSITIONS FOR IMPROVING KIDNEY FUNCTION IN PATIENTS WITH HEPATORENAL SYNDROME” (Mallinckrodt Pharmaceuticals Ireland Limited, priority 2022, published 2025):
Where two headings read alike, the source gives them in different places. Each block holds one compound with its values, some of them ahead of it. Where a SMILES comes first, the peptide text is derived from it. Bridges are numbered along the chain shown (N, C = ends).

Tests used:
mouse = test: In vivo mouse micronucleus assay
[1] = Metabolism in blood or plasma
Text: Once formed, lysine-vasopressin is metabolized by body tissue via various peptidase-mediated routes.

[2] = Pharmacokinetic modeling with sparse PK samples from 69 patients with HRS-1; conditions: for AUC(0-t) / Cmax: iv
patients with HRS-1 [3] = test: CONFIRM randomized, placebo-controlled, double-blind study of terlipressin plus albumin; conditions: for between-group difference in the incidence of respiratory failure SAEs / between-group difference in the incidence of respiratory failure fatal AEs: terlipressin minus placebo
Method: In particular, HRS-1 was defined based on modified prior criteria outlined by the International Club of Ascites (ICA), as rapidly deteriorating renal function to SCr≥2.25 mg/dl, with actual or projected doubling of SCr within 2 weeks, without improvement in renal function (<20% decrease in SCr 48 hours after both diuretic withdrawal and albumin-fluid challenge) in adult patients with cirrhosis and ascites. […] Treatment was continued to Day 14 unless the following occurred: verified HRS reversal (VHRSR), renal replacement therapy (RRT), liver transplantation (LT) or SCr at or above baseline (BL) at Day 4. VHRSR, the primary endpoint, was defined as 2 consecutive SCr values≤1.5 mg/dl, at least 2 hours apart, with subjects alive without RRT for at least 10 days after the second SCr≤1.5 mg/dL; HRS reversal (HRSR) was a decrease in SCr to ≤1.5 mg/dL. Secondary end points included HRS reversal (any SCr value 1.5 mg/dL or less during treatment), HRS reversal without RRT by day 30, HRS reversal in patients with systemic inflammatory response syndrome, and verified HRS reversal without recurrence by day 30.
The patients were at least 18 years of age, with cirrhosis, ascites, and rapidly progressive renal failure, with a SCr doubling to at least 2.25 mg/dL within 14 days. Major exclusion criteria included SCr of greater than 7.0 mg/dL, one or more large-volume paracenteses of 4 L or more within 2 days of randomization, evidence of parenchymal renal diseases or obstructive uropathy, or presence of sepsis and/or uncontrolled bacterial infection. Patients with severe cardiovascular disease or recent (within 4 weeks) renal replacement therapy (RRT) were excluded.
300 subjects were enrolled in the study. […] Patients were stratified by qualifying SCr (less than 3.4 mg/dL or 3.4 mg/dL or greater) and pre-enrollment large-volume paracentesis (at least one single event of 4 L or greater, or less than 4 L within 3 to 14 days prior to randomization).
A baseline SCr value was assessed before the patients received the assigned treatment. […] In keeping with current guidelines, it was strongly recommended that albumin (1 g/kg to a maximum of 100 g, on day 1 and 20 to 40 g/day thereafter) be administered to all subjects. If SCr decreased <30% from the baseline value on Day 4, after a minimum of 10 doses of study drug, dose increase to 2 mg every 6 hours (±30 minutes) (8 mg/day) was mandated, except in subjects with coronary artery disease or in the setting of circulatory overload, pulmonary edema, or bronchospasm. Dose resumption was permitted after interruption for adverse events except for cardiac or mesenteric ischemia, for which treatment was permanently discontinued.
The primary efficacy end point was the incidence of verified HRS reversal, defined as the percentage of patients with two consecutive SCr values no greater than 1.5 mg/dl at least 2 hours apart, while remaining alive without RRT for at least 10 days after achieving verified HRS reversal, while excluding SCr values after RRT, transjugular intrahepatic portosystemic shunt, liver transplant, or open-label vasopressor from primary end point analysis.
Secondary efficacy end points included incidence of HRS reversal, defined as the percentage of patients with an on-treatment SCr value of 1.5 mg/dl or less; durability of HRS reversal, defined as the percentage of patients with HRS reversal without RRT to day 30; incidence of HRS reversal among patients with systemic inflammatory response syndrome; and incidence of verified HRS reversal without HRS recurrence by day 30.

rabbits = conditions: increased resorptions, implantation loss, fetal anomalies and deformities; cited from earlier work
pregnant guinea pigs = conditions: doses lower than the maximum recommended human dose of 4 mg/day; cited from earlier work
CYP enzymes = test: CYP inhibition and induction in human liver microsomes; type: in vitro ADME
Text: (§1) No significant drug-drug interactions are anticipated with terlipressin (TERLIVAZ).

mammalian cell (CHO) = test: In vitro mammalian cell (CHO) chromosome aberration assay
[4] = system: human ABC and SLC transporters; test: Transporter inhibition and substrate studies; type: in vitro ADME
Text: as §1

QTc interval = test: Cardiac electrophysiology in 41 patients with HRS-1; type: in vivo, human; conditions: 1 mg terlipressin acetate every 6 hours up to 14 days; Fridericia correction
Text: Increases of the mean QTc interval of <10 ms were reported.

[5] = Pharmacokinetics and excretion in healthy subjects
bacterial = test: In vitro bacterial reverse mutation assay
patients with HRS-1 [6] = test: ACLF grade and respiratory failure with terlipressin, double-blind placebo-controlled trial (Example 3); type: in vivo, human
Method: In FIG. 6B, the incidence of respiratory failure was based on CLIF-SOFA score definition of respiratory failure.
The study was a double-blind placebo-controlled trial. […] HRS-1 was defined as rapidly rising serum creatinine (SCr) to ≥2.25 mg/dl in <14 days without response to volume challenge or evidence of structural renal disease.
All patients were assessed for organ failure (OF) per EASL-CLIF criteria and then classified into grades of acute-on-chronic liver failure (ACLF). All patients had at minimum grade 1 ACLF due to the presence of HRS-1; grades 2 and 3 ACLF represent 2 or 3 OFs respectively. Patients were separated into into grade≤2 and grade 3 ACLF subgroups.

[7] = background statement; cited from earlier work
pregnant women = conditions: single intravenous or intranasal dose, first trimester; cited from earlier work
patients = conditions: voluntary reports; cited from earlier work
clinical = conditions: human, in vivo; for AUC(0-t) / Cmax: iv
[8] = human, in vivo

SMILES: NCCCC[C@H](NC(=O)[C@@H]1CCCN1C(=O)[C@@H]1CSSC[C@H](NC(=O)CNC(=O)CNC(=O)CN)C(=O)N[C@@H](Cc2ccc(O)cc2)C(=O)N[C@@H](Cc2ccccc2)C(=O)N[C@@H](CCC(N)=O)C(=O)N[C@@H](CC(N)=O)C(=O)N1)C(=O)NCC(N)=O [Terlipressin, N—[N—(N-glycylglycyl)glycyl]-8-L-lysinevasopressin] (H-GGGCYFQNCPKG-NH2; disulfide 4-9 (inferred))
mutagenicity / clastogenicity (mouse): not mutagenic or clastogenic
metabolism in blood or plasma [1]: not metabolized in blood or plasma
median Cave at steady state ([2]; 1 mg IV injection of terlipressin acetate): 14.2 ng/mL
mean Cave ([2]; 1 mg dose of terlipressin acetate IV): about 14.2 ng/ml
Vd ([2]; human, in vivo): 6.3 L
clearance ([2]; human, in vivo, 1 mg, clearance (derived typical population PK parameter), 1 mg terlipressin acetate): 457 mL/min
clearance ([2]; human, in vivo, clearance, typical population PK parameter (range)): 413 to 518 mL/min
AUC(0-t) ([2]; human, in vivo, 1 mg, AUC24h (range), 1 mg dose of terlipressin acetate IV): 61.2 to 246 ng·h/mL
Cmax ([2]; human, in vivo, 1 mg, Cmax (range), 1 mg dose of terlipressin acetate IV): 37.1 to 143 ng/mL
AUC(0-t) ([2]; human, in vivo, 1 mg, mean AUC24h, 1 mg dose of terlipressin acetate IV): ~123 ng·h/mL
Cmax ([2]; human, in vivo, 1 mg, mean Cmax, 1 mg dose of terlipressin acetate IV): ~70.5 ng/mL
AUC(0-t) ([2]; human, in vivo, 1 mg, median AUC24h at steady state, 1 mg IV injection of terlipressin acetate): 123 ng·h/mL
Cmax ([2]; human, in vivo, 1 mg, median Cmax at steady state, 1 mg IV injection of terlipressin acetate): 70.5 ng/mL
half-life ([2]; human, in vivo, terminal half-life): ~0.9 h
Treatment discontinuation due to adverse events (patients with HRS-1 [3]; 24/200 patients): 12.0%
most common adverse events that led to discontinuation (patients with HRS-1 [3]; in vivo): respiratory failure, abdominal pain, and intestinal ischemia/obstruction
subjects listed at baseline who did not receive a transplant and died by Day 90 (pre-transplant mortality) (patients with HRS-1 [3]; mitigated population, 4 subjects): 11.4%
AE leading to death up to 30 days post-treatment: Respiratory failure (patients with HRS-1 [3]; mitigated population, N = 132): 5.3 % of Subjects
Any AE leading to death up to 30 days post-treatment (patients with HRS-1 [3]; mitigated population, N = 132): 34.1 % of Subjects
Death by Day 30 (patients with HRS-1 [3]; mitigated population, N = 132): 31.8 % of Subjects
Death by Day 60 (patients with HRS-1 [3]; mitigated population, N = 132): 40.2 % of Subjects
Death by Day 90 (patients with HRS-1 [3]; mitigated population, N = 132): 44.7 % of Subjects
Serior Adverse Events (patients with HRS-1 [3]; mitigated population, N = 132): 61.4 % of Subjects
Serious adverse events: Respiratory failure (patients with HRS-1 [3]; mitigated population, N = 132): 9.8 % of Subjects
Any AE leading to death up to 30 days post-treatment (patients with HRS-1 [3]; mitigated population, N = 132, listed as terlipressin): 31.8 % of Subjects
subjects listed at baseline who did not receive a transplant and died by Day 90 (pre-transplant mortality) (patients with HRS-1 [3]; overall population, 12 subjects): 21.4%
AE leading to death up to 30 days post-treatment: Respiratory failure (patients with HRS-1 [3]; overall population, N = 200): 8.5 % of Subjects
Any AE leading to death up to 30 days post-treatment (patients with HRS-1 [3]; overall population, N = 200): 41.5 % of Subjects
Death by Day 30 (patients with HRS-1 [3]; overall population, N = 200): 39.0 % of Subjects
Death by Day 60 (patients with HRS-1 [3]; overall population, N = 200): 47.0 % of Subjects
Death by Day 90 (patients with HRS-1 [3]; overall population, N = 200): 51.0 % of Subjects
Serior Adverse Events (patients with HRS-1 [3]; overall population, N = 200): 65.0 % of Subjects
Serious adverse events: Respiratory failure (patients with HRS-1 [3]; overall population, N = 200): 13.5 % of Subjects
Any AE leading to death up to 30 days post-treatment (patients with HRS-1 [3]; overall population, N = 200, listed as terlipressin): 39.0 % of Subjects
Adverse reaction: Abdominal pain (patients with HRS-1 [3]; patients (percent), N = 200): 39 (19.5)
Adverse reaction: Bradycardia (patients with HRS-1 [3]; patients (percent), N = 200): 10 (5.0)
Adverse reaction: Diarrhea (patients with HRS-1 [3]; patients (percent), N = 200): 26 (13.0)
Adverse reaction: Dyspnea (patients with HRS-1 [3]; patients (percent), N = 200): 25 (12.5)
Adverse reaction: Fluid overload (patients with HRS-1 [3]; patients (percent), N = 200): 17 (8.5)
Adverse reaction: Nausea (patients with HRS-1 [3]; patients (percent), N = 200): 32 (16.0)
Adverse reaction: Pleural effusion (patients with HRS-1 [3]; patients (percent), N = 200): 11 (5.5)
Adverse reaction: Respiratory failure (patients with HRS-1 [3]; patients (percent), N = 200): 31 (15.5)
Adverse reaction: Sepsis (patients with HRS-1 [3]; patients (percent), N = 200): 11 (5.5)
Adverse reaction: Ischemia-related events (patients with HRS-1 [3]; patients (percent), N = 200, skin discoloration, cyanosis, ischemia and intestinal ischemia): 9 (4.5)
serious or fatal respiratory failure (patients with HRS-1 [3]; primary clinical trial): 14%
between-group difference in the incidence of respiratory failure SAEs (patients with HRS-1 [3]; mitigated population): 2.8%
between-group difference in the incidence of respiratory failure fatal AEs (patients with HRS-1 [3]; mitigated population): 3.9%
between-group difference in the incidence of respiratory failure fatal AEs (patients with HRS-1 [3]; overall population): 7.5%
between-group difference in the incidence of respiratory failure SAEs (patients with HRS-1 [3]; overall study population): 8.4%
reproductive toxicity finding (rabbits): embryotoxic and teratogenic
reproductive toxicity finding (pregnant guinea pigs): marked decrease in blood flow to the uterus and placenta
direct-, time-, or metabolism dependent inhibitor and inducer of CYP enzymes (CYP enzymes): little or no evidence
mutagenicity / clastogenicity (mammalian cell (CHO)): not mutagenic or clastogenic
inhibitor and substrate of human ABC and SLC transporters [4]: little or no evidence
Increases of the mean QTc interval (QTc interval): < 10 ms
QTc changes from baseline (QTc interval): No clinically meaningful changes from baseline
dose-dependent changes in the elimination rate constant [5]: no dose-dependent changes
pharmacokinetic linearity [5]: linear pharmacokinetics
mutagenicity / clastogenicity (bacterial): not mutagenic or clastogenic
percent of patients with respiratory failure (patients with HRS-1 [6]; ACLF 3, FIG. 6C, investigator reported): much higher than placebo
incidence of respiratory failure, baseline to end of treatment (patients with HRS-1 [6]; FIGS. 6A-6B, CLIF-SOFA definition): increased incidence of respiratory failure
duration of action [7]: 2 to 10 h
half-life [7]: 6 h
effect in pregnancy (pregnant women): induced uterine contractions and endometrial ischemia
Adverse reactions reported from postmarketing experience (patients): headache hyponatremia, skin necrosis and gangrene

Vd (clinical): 1370 L
clearance (clinical; 1 mg, clearance (derived typical population PK parameter)): 5300 mL/min
clearance (clinical; clearance, typical population PK parameter (range)): 4720 to 6050 mL/min
AUC(0-t) (clinical; 1 mg, AUC24h (range)): 3.78 to 33.5 ng·h/mL
Cmax (clinical; 1 mg, Cmax (range)): 0.4 to 3.36 ng/mL
AUC(0-t) (clinical; 1 mg, mean AUC24h): 11.2 ng·h/mL
Cmax (clinical; 1 mg, mean Cmax): ~1.2 ng/mL
AUC(0-t) (clinical; 1 mg, median AUC24h at steady state): 11.2 ng·h/mL
Cmax (clinical; 1 mg, median Cmax at steady state): 1.2 ng/mL
half-life (clinical; terminal half-life): ~3 h
pharmacokinetic linearity [8]: linear pharmacokinetics
SMILES: NCCCC[C@H](NC(=O)[C@@H]1CCCN1C(=O)[C@@H]1CSSC[C@H](N)C(=O)N[C@@H](Cc2ccc(O)cc2)C(=O)N[C@@H](Cc2ccccc2)C(=O)N[C@@H](CCC(N)=O)C(=O)N[C@@H](CC(N)=O)C(=O)N1)C(=O)NCC(N)=O [lysine-vasopressin]

SMILES: NC(=O)CC[C@@H]1NC(=O)[C@H](Cc2ccccc2)NC(=O)[C@H](Cc2ccc(O)cc2)NC(=O)[C@@H](N)CSSC[C@@H](C(=O)N2CCC[C@H]2C(=O)N[C@@H](CCCN=C(N)N)C(=O)NCC(N)=O)NC(=O)[C@H](CC(N)=O)NC1=O [vasopressin]
duration of action [7]: 0.5 to 1 h
half-life [7]: 0.1 h
